Laboratory results reported in ChEMBL document CHEMBL1148160, “Planaxool: a novel cytotoxic cembranoid form the mollusk Planaxis sulcatus” (1993).

Tested on: L1210
Assay: Cytotoxicity against mouse L1210 cells
Format: functional

C/C1=C\CC[C@]2(C)O[C@H]([C@@H]3OC(=O)[C@]4(OO)CCO[C@@H]2C[C@H]34)[C@H](C)CCC1 [PLANAXOOL]
IC100: 2.4 µg/mL
